From PMC9503946 (Pharmaceuticals, 2022)
“And” between values parts separate entries of the source, which are not always exact repeats. Equal entries are not always repeated.

Experiments:
[1] = biological target: recombinant SARS-CoV-1 nucleocapsid protein (Severe acute respiratory syndrome coronavirus, UniProt P59595); test: biochemical; assay type: binding
[2] = test system: MRC-5 cells; details: 72 h; 0.003-100 µM
[3] = in vitro; details: human
[4] = biological target: recombinant SARS-CoV-2 nucleocapsid protein (full-length NP, aa 1–419) (Severe acute respiratory syndrome coronavirus 2, UniProt P0DTC9); test: biochemical; assay type: binding
[5] = test system: A549 cells; details: 72 h; 0.003-100 µM

Chain of recombinant SARS-CoV-1 nucleocapsid protein (P59595 whole entry, looked up): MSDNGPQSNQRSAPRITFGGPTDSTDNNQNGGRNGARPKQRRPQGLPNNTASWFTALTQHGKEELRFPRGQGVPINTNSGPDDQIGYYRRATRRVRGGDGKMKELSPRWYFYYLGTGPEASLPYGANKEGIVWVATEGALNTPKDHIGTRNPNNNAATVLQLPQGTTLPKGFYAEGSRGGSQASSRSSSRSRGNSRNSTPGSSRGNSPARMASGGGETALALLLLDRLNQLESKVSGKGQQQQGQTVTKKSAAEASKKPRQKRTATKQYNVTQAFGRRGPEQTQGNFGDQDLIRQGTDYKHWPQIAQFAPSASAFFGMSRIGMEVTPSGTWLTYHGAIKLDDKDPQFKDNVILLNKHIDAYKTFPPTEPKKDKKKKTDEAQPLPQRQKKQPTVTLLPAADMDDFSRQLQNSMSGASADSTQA

Structure (SMILES)	Kd [1]	IC50 (cytotoxicity) [2]	IC50 [3]	Kd [4]	IC50 (cytotoxicity) [5]
Cc1ccc2ccccc2c1COc1ccc2c(C)c(CC(=O)N3CCC4(O)CCCCC4C3)c(=O)oc2c1C (stereo not drawn) [Compound 1, 3-[2-(4a-hydroxy-decahydroisoquinolin-2-yl)-2-oxoethyl]-4,8-dimethyl-7-[(2-methylnaphthalen-1-yl)methoxy]-2H-chromen-2-one]	14.6 ± 0.44 µM	no toxicity	51 ± 8.13 µM	–	–
Cc1c(CC(=O)N2CCC3(O)CCCCC3C2)c(=O)oc2cc3occ(-c4ccc5ccccc5c4)c3cc12 (stereo not drawn) [Compound 2, 6-[2-(4a-hydroxy-decahydroisoquinolin-2-yl)-2-oxoethyl]-5-methyl-3-(naphthalen-2-yl)-7H-furo [3,2-g]chromen-7-one]	–	–	–	22.8 ± 1.52 µM	–
Cc1c(CC(=O)N2CCC3(O)CCCCC3C2)c(=O)oc2c(C)c3occ(-c4ccc5ccccc5c4)c3cc12 (stereo not drawn) [Compound 4, 6-[2-(4a-hydroxy-decahydroisoquinolin-2-yl)-2-oxoethyl]-5,9-dimethyl-3-(naphthalen-2-yl)-7H-furo[3,2-g]chromen-7-one]	0.674 µM and < 1 µM	–	–	–	no toxicity
